# Measured values as given in ChEMBL document CHEMBL3885861, “Open TG-GATES”.
# Species: Rattus norvegicus
# Assay: Open TG-GATES - Regimen: Single
# Format: toxicity, organism-based, Sprague-Dawley
# Parameters: regimen Single, gender Male, age 6 weeks
# Conditions: in vivo, po, 60 mg/kg, route gavage, dose level Middle; for APTT / Bas / Eos / Fbg / Hb / Ht / Lym / MCH / MCHC / MCV / Mono / Neu / PT / Plat / RBC / Ret / WBC: tissue Blood; for KIDNEY_L / KIDNEY_R / KIDNEY_TOTAL: tissue Kidney; for LIVER: tissue Liver; for A/G / ALP / ALT / AST / BUN / CRE / Ca / Cl / DBIL / GLC / IP / K / LDH / Na / PL / RALB / TBIL / TC / TG / TP / gamma-GTP: tissue Plasma
compound,measurement,setting,value
Cn1c(=O)c2[nH]cnc2n(C)c1=O.O [THEOPHYLLINE],TERMINAL_BW,3 h,215.5 g
same,APTT,3 h,22.1 s
same,Bas,3 h,0%
same,Eos,3 h,1.2%
same,Fbg,3 h,306 mg/dL
same,Hb,3 h,12.6 g/dL
same,Ht,3 h,38.3%
same,Lym,3 h,68.6%
same,MCH,3 h,20.2 pg
same,MCHC,3 h,32.9%
same,MCV,3 h,61.6 fL
same,Mono,3 h,2.2%
same,Neu,3 h,26.4%
same,PT,3 h,15.4 s
same,Plat,3 h,117 x10_4/uL
same,RBC,3 h,622.6 x10_4/ul
same,Ret,3 h,7.6%
same,WBC,3 h,72.7 x10_2/uL
same,KIDNEY_L,3 h,1 g
same,KIDNEY_R,3 h,1 g
same,KIDNEY_TOTAL,3 h,1.9 g
same,LIVER,3 h,9.3 g
same,A/G,3 h,1.3
same,ALP,3 h,1415.2 IU/L
same,ALT,3 h,44.8 IU/L
same,AST,3 h,80.2 IU/L
same,BUN,3 h,13 mg/dL
same,CRE,3 h,0.2 mg/dL
same,Ca,3 h,10.2 mg/dL
same,Cl,3 h,108 meq/L
same,DBIL,3 h,0 mg/dL
same,GLC,3 h,184.4 mg/dL
same,IP,3 h,7.3 mg/dL
same,K,3 h,3.5 meq/L
same,LDH,3 h,184.2 IU/L
same,Na,3 h,140.6 meq/L
same,PL,3 h,120 mg/dL
same,RALB,3 h,3.2 g/dL
same,TBIL,3 h,0.022 mg/dL
same,TC,3 h,67.8 mg/dL
same,TG,3 h,33.6 mg/dL
same,TP,3 h,5.6 g/dL
same,gamma-GTP,3 h,1.6 IU/L
same,TERMINAL_BW,6 h,215.8 g
same,APTT,6 h,23.9 s
same,Bas,6 h,0%
same,Eos,6 h,0.8%
same,Fbg,6 h,302.8 mg/dL
same,Hb,6 h,13.1 g/dL
same,Ht,6 h,40%
same,Lym,6 h,75.2%
same,MCH,6 h,20.9 pg
same,MCHC,6 h,32.7%
same,MCV,6 h,64 fL
same,Mono,6 h,3.2%
same,Neu,6 h,19.4%
same,PT,6 h,15.6 s
same,Plat,6 h,119.8 x10_4/uL
same,RBC,6 h,626.8 x10_4/ul
same,Ret,6 h,7.4%
same,WBC,6 h,74.1 x10_2/uL
same,KIDNEY_L,6 h,0.9 g
same,KIDNEY_R,6 h,0.9 g
same,KIDNEY_TOTAL,6 h,1.8 g
same,LIVER,6 h,9 g
same,A/G,6 h,1.2
same,ALP,6 h,1323.6 IU/L
same,ALT,6 h,41.6 IU/L
same,AST,6 h,86 IU/L
same,BUN,6 h,11.6 mg/dL
same,CRE,6 h,0.2 mg/dL
same,Ca,6 h,10.6 mg/dL
same,Cl,6 h,108.4 meq/L
same,DBIL,6 h,0 mg/dL
same,GLC,6 h,191 mg/dL
same,IP,6 h,8.2 mg/dL
same,K,6 h,3.5 meq/L
same,LDH,6 h,212 IU/L
same,Na,6 h,140.4 meq/L
same,PL,6 h,126 mg/dL
same,RALB,6 h,3.2 g/dL
same,TBIL,6 h,0.018 mg/dL
same,TC,6 h,70.2 mg/dL
same,TG,6 h,36 mg/dL
same,TP,6 h,5.7 g/dL
same,gamma-GTP,6 h,1.2 IU/L
same,TERMINAL_BW,9 h,211.1 g
same,APTT,9 h,22.3 s
same,Bas,9 h,0%
same,Eos,9 h,0.8%
same,Fbg,9 h,349.8 mg/dL
same,Hb,9 h,12.9 g/dL
same,Ht,9 h,38.8%
same,Lym,9 h,73.2%
same,MCH,9 h,20.6 pg
same,MCHC,9 h,33.4%
same,MCV,9 h,61.8 fL
same,Mono,9 h,2%
same,Neu,9 h,22%
same,PT,9 h,15.8 s
same,Plat,9 h,120.3 x10_4/uL
same,RBC,9 h,630.2 x10_4/ul
same,Ret,9 h,7.2%
same,WBC,9 h,77.3 x10_2/uL
same,KIDNEY_L,9 h,1 g
same,KIDNEY_R,9 h,1 g
same,KIDNEY_TOTAL,9 h,2 g
same,LIVER,9 h,8.6 g
same,A/G,9 h,1.2
same,ALP,9 h,1618.2 IU/L
same,ALT,9 h,43.8 IU/L
same,AST,9 h,87.2 IU/L
same,BUN,9 h,9.8 mg/dL
same,CRE,9 h,0.2 mg/dL
same,Ca,9 h,10.7 mg/dL
same,Cl,9 h,107.2 meq/L
same,DBIL,9 h,0 mg/dL
same,GLC,9 h,165.2 mg/dL
same,IP,9 h,8.3 mg/dL
same,K,9 h,3.7 meq/L
same,LDH,9 h,168.2 IU/L
same,Na,9 h,140.2 meq/L
same,PL,9 h,121.6 mg/dL
same,RALB,9 h,3.2 g/dL
same,TBIL,9 h,0.022 mg/dL
same,TC,9 h,73.8 mg/dL
same,TG,9 h,23.8 mg/dL
same,TP,9 h,5.9 g/dL
same,gamma-GTP,9 h,1.2 IU/L
same,TERMINAL_BW,24 h,225.6 g
same,APTT,24 h,22.2 s
same,Bas,24 h,0%
same,Eos,24 h,0.8%
same,Fbg,24 h,293 mg/dL
same,Hb,24 h,13.9 g/dL
same,Ht,24 h,41.4%
same,Lym,24 h,76.2%
same,MCH,24 h,20.6 pg
same,MCHC,24 h,33.6%
same,MCV,24 h,61.2 fL
same,Mono,24 h,3%
same,Neu,24 h,18.6%
same,PT,24 h,16 s
same,Plat,24 h,115 x10_4/uL
same,RBC,24 h,676.8 x10_4/ul
same,Ret,24 h,6.5%
same,WBC,24 h,97.8 x10_2/uL
same,KIDNEY_L,24 h,1 g
same,KIDNEY_R,24 h,1 g
same,KIDNEY_TOTAL,24 h,2 g
same,LIVER,24 h,10.1 g
same,A/G,24 h,1.2
same,ALP,24 h,1662.4 IU/L
same,ALT,24 h,42.8 IU/L
same,AST,24 h,73.4 IU/L
same,BUN,24 h,15.6 mg/dL
same,CRE,24 h,0.2 mg/dL
same,Ca,24 h,10.9 mg/dL
same,Cl,24 h,106 meq/L
same,DBIL,24 h,0.006 mg/dL
same,GLC,24 h,191.2 mg/dL
same,IP,24 h,8.8 mg/dL
same,K,24 h,4.1 meq/L
same,LDH,24 h,168.4 IU/L
same,Na,24 h,142.2 meq/L
same,PL,24 h,135.4 mg/dL
same,RALB,24 h,3 g/dL
same,TBIL,24 h,0.006 mg/dL
same,TC,24 h,78.2 mg/dL
same,TG,24 h,60.6 mg/dL
same,TP,24 h,5.5 g/dL
same,gamma-GTP,24 h,1.4 IU/L
